Measured values reported in article PMC12169615, “Fluorescent 4‑Nitrobenzo-2-oxa-1,3-diazole-Coupled Bile Acids as Probe Substrates of Hepatic and Intestinal Bile Acid Transporters of the Solute Carrier Families SLC10 and SLCO” (Journal of Medicinal Chemistry, 2025).
Several values for one entry are separate records, joined by “and”; a condition that tells them apart may be missing. Identical values can stand only once.

Columns and labels:
mouse mNtcp = target: T1, mouse mNtcp (Mus musculus, UniProt O08705); experiment: Quantitative uptake of 3-NBD-BA in carrier-expressing HEK293 cells (fluorescence reader); type: cell-based; settings: mNtcp-HEK293, 25 μM, 37 °C, +Na+ vs -Na+
T1 construct: stably transfected with the full open reading frames of human NTCP, ASBT, SOAT, OATP1B1, and OATP1B3 as well as mouse mNtcp and mAsbt; expressed in transfected cells
T1 sequence (O08705 1-362): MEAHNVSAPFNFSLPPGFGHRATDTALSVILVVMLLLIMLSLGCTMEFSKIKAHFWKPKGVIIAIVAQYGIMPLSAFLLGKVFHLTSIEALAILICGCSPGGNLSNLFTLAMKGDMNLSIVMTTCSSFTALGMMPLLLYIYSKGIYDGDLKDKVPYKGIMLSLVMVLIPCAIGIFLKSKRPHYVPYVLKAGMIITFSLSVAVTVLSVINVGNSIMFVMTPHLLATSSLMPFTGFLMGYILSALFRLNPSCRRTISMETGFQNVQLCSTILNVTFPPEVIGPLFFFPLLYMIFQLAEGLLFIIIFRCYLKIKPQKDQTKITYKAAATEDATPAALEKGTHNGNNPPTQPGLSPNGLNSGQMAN
Procedure: (§1) For quantification of the transport activity of the synthesized NBD-BA, all cell lines were seeded on 96 well plates and transport experiments were performed under the same control conditions (-Na^+ control for the SLC10 carriers and nontransfected HEK293 cells for the OATP carriers) as before (Figure ). For each NBD-BA, a substrate concentration of 25 μM was used, and the uptake phase was terminated after 10 min of incubation at 37 °C. […] The transport ratios ranged from 3-fold to 39-fold. In direct comparison, 3α-NBD-TCA (14d) and 3α-NBD-GCA (16d) were transported better than their 3β-analogs 3β-NBD-TCA (14a) and 3β-NBD-GCA (16a), respectively, clearly pointing to a preference for the α-position over the β-position of the 3-NBD-label. In direct comparison between the taurine- or glycine-conjugation of the respective NBD-BA, there was a clear preference for 3α-NBD-GCA (16d) over 3α-NBD-TCA (14d), at least for NTCP and mAsbt, pointing to a favorable substrate recognition for glycine-conjugated NBD-BA.
(§2) 5 Quantitative uptake experiments with the 3-NBD-BA in HEK293 cells stably expressing the human carriers NTCP, ASBT, SOAT, OATP1B1, and OATP1B3, or the mouse carriers mNtcp and mAsbt. For the SLC10 carriers, all transport experiments were performed in the presence (filled bars) and the absence (hatched bars) of sodium. For the OATP carriers, uptake into carrier-expressing cells (filled bars) was compared to uptake into non-carrier-expressing HEK293 cells (hatched bars). All cell lines were incubated at 37 °C for 10 min with the indicated 3-NBD-BA at 25 μM. Then, cells were washed with PBS and subjected to fluorescence detection. The following fluorescent BA were analyzed: 3α-NBD-TCA (14d), 3β-NBD-TCA (14a), 3α-NBD-GCA (16d), 3β-NBD-GCA (16a), 3β-NBD-TCDCA (14b), 3β-NBD-CDCA (6b), 3β-NBD-DCA (6c), 3α-NBD-CA (6d), and 3β-NBD-CA (6a). Data represent means ± SD of triplicate determinations of representative experiments. […] RFU, relative fluorescence units. TEXT PRINTED IN THE PICTURE: 3α-NBD-TCA (14d): NTCP: 9 X; mNtcp: 30 X; ASBT: 2 X; mAsbt: 14 X | 3ß-NBD-TCA (14a): NTCP: 12 X; mNtcp: 20 X; mAsbt: 18 X | 3α-NBD-GCA (16d): NTCP: 27 X; mNtcp: 26 X; ASBT: 3 X; mAsbt: 39 X | 3ß-NBD-GCA (16a): NTCP: 15 X; mNtcp: 14 X; mAsbt: 5 X | 3ß-NBD-TCDCA (14b): NTCP: 5 X; mNtcp: 3 X; mAsbt: 4 X | 3ß-NBD-CDCA (6b): mNtcp: < 2 X; ASBT: < 2 X; mAsbt: < 2 X; OATP1B1: < 2 X; OATP1B3: < 2 X | 3ß-NBD-DCA (6c): mNtcp: < 2 X; ASBT: < 2 X; mAsbt: < 2 X | 3α-NBD-CA (6d): mNtcp: 2 X; mAsbt: 4 X | 3ß-NBD-CA (6a): NTCP: 2 X; mNtcp: 2 X; mAsbt: 2 X DOUBTS OF THE COPYIST ABOUT THIS PICTURE: The picture prints no panel letters, so the chart titles (NTCP, mNtcp, ASBT, mAsbt, OATP1B1, OATP1B3) are written in front of the values as the target. / Substance labels: the sign after '3' is printed like 'ß' and may be meant as 'β'. / The 'ns' marks and significance asterisks were left out as statistics. The SOAT chart prints only 'ns'.

human NTCP = target: T2, human NTCP (Homo sapiens, UniProt Q14973); experiment: as above; type: cell-based; settings: NTCP-HEK293, 25 μM, 37 °C, +Na+ vs -Na+
T2 construct: HEK293 cell lines stably transfected with the full open reading frames of human NTCP; expressed in transfected cells
T2 sequence (Q14973 1-349): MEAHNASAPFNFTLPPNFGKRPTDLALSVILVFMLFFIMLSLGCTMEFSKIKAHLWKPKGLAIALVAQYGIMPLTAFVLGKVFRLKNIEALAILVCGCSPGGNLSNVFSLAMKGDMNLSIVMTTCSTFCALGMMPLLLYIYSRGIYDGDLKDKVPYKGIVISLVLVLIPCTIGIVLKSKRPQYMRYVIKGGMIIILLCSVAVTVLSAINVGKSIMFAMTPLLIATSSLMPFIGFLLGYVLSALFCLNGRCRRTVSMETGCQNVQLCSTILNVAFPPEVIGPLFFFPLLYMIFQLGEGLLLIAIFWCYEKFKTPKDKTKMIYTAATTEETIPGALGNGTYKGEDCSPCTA
Procedure: as §1, §2

Compound | Specific transport ratio mNtcp (25µM/10 min uptake) (mouse mNtcp) | Specific transport ratio NTCP (25µM/10 min uptake) (human NTCP)
7α-Hydroxy-3β-[(7-nitro-2,1,3-benzoxadiazol-4-yl)amino]-5β-cholan-24-oate [6b] | <2x x-fold | ns
12α-Hydroxy-3β-[(7-nitro-2,1,3-benzoxadiazol-4-yl)amino]-5β-cholan-24-oate [6c] | <2x x-fold | ns
C[C@H](CCC(=O)O)[C@H]1CC[C@H]2[C@@H]3[C@H](O)C[C@@H]4C[C@@H](Nc5ccc([N+](=O)[O-])c6nonc56)CC[C@]4(C)[C@H]3C[C@H](O)[C@]12C [6a, 7α,12α-Dihydroxy-3β-[(7-nitro-2,1,3-benzoxadiazol-4-yl)amino]-5β-cholan-24-oate] | 2 x-fold and 2x x-fold | 2 x-fold and 2x x-fold
C[C@H](CCC(=O)O)[C@H]1CC[C@H]2[C@@H]3[C@H](O)C[C@@H]4C[C@H](Nc5ccc([N+](=O)[O-])c6nonc56)CC[C@]4(C)[C@H]3C[C@H](O)[C@]12C [6d, 7α,12α-Dihydroxy-3α-[(7-nitro-2,1,3-benzoxadiazol-4-yl)amino]-5β-cholan-24-oate] | 2 x-fold and 2x x-fold | ns
C[C@H](CCC(=O)NCCS(=O)(=O)[O-])[C@H]1CC[C@H]2[C@@H]3[C@H](O)C[C@@H]4C[C@@H](Nc5ccc([N+](=O)[O-])c6nonc56)CC[C@]4(C)[C@H]3C[C@H](O)[C@]12C.[Na+] [14a] | 20x x-fold | 12x x-fold
C[C@H](CCC(=O)NCCS(=O)(=O)[O-])[C@H]1CC[C@H]2[C@@H]3[C@H](O)C[C@@H]4C[C@H](Nc5ccc([N+](=O)[O-])c6nonc56)CC[C@]4(C)[C@H]3C[C@H](O)[C@]12C.[Na+] [14d] | 30x x-fold | 9x x-fold
C[C@H](CCC(=O)NCC(=O)O)[C@H]1CC[C@H]2[C@@H]3[C@H](O)C[C@@H]4C[C@@H](Nc5ccc([N+](=O)[O-])c6nonc56)CC[C@]4(C)[C@H]3C[C@H](O)[C@]12C [16a] | 14x x-fold | 15x x-fold
C[C@H](CCC(=O)NCC(=O)O)[C@H]1CC[C@H]2[C@@H]3[C@H](O)C[C@@H]4C[C@H](Nc5ccc([N+](=O)[O-])c6nonc56)CC[C@]4(C)[C@H]3C[C@H](O)[C@]12C [16d] | 26x x-fold | 27x x-fold
